Measurements from patent US6372717B1, “Synthetic peptides and their use in cosmetic or dermopharmaceutical compositions” (Sederma S.A., priority 1999, dated 2002).

System: human skin
Experiment: activity by topical application
Format: in vivo
From the text: The object of the present invention is the discovery that this peptide, and above all the lipophile derivatives of the peptide, have a calming, antalgic activity when applied to the human skin in a suitable cosmetic or dermopharmaceutical preparation.

N=C(N)NCCC[C@H](NC(=O)[C@@H](N)Cc1ccc(O)cc1)C(=O)O [H-L-Tyr-L-Arg-OH]
activity by topical application: only a slight activity
